molecular target: T1, F508del (Homo sapiens, UniProt P13569, DEL508-508); assay: Protocol 1: membrane potential optical assay (FLIPR III, voltage sensing dye), identification of potentiator compounds; type: cell-based; settings: Table 3, compounds of Table 1
T1 construct: expressed in transfected cells
Summary of the method: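 Membrane potential in forskolin-activated, temperature-rescued F508del NIH 3T3 cells is followed with a voltage-sensing dye on FLIPR III. A chloride ion gradient created at the single addition step provides the driving force, after prior compound treatment.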

T1 sequence (P13569 with tags, fused parts or gaps DEL508-508): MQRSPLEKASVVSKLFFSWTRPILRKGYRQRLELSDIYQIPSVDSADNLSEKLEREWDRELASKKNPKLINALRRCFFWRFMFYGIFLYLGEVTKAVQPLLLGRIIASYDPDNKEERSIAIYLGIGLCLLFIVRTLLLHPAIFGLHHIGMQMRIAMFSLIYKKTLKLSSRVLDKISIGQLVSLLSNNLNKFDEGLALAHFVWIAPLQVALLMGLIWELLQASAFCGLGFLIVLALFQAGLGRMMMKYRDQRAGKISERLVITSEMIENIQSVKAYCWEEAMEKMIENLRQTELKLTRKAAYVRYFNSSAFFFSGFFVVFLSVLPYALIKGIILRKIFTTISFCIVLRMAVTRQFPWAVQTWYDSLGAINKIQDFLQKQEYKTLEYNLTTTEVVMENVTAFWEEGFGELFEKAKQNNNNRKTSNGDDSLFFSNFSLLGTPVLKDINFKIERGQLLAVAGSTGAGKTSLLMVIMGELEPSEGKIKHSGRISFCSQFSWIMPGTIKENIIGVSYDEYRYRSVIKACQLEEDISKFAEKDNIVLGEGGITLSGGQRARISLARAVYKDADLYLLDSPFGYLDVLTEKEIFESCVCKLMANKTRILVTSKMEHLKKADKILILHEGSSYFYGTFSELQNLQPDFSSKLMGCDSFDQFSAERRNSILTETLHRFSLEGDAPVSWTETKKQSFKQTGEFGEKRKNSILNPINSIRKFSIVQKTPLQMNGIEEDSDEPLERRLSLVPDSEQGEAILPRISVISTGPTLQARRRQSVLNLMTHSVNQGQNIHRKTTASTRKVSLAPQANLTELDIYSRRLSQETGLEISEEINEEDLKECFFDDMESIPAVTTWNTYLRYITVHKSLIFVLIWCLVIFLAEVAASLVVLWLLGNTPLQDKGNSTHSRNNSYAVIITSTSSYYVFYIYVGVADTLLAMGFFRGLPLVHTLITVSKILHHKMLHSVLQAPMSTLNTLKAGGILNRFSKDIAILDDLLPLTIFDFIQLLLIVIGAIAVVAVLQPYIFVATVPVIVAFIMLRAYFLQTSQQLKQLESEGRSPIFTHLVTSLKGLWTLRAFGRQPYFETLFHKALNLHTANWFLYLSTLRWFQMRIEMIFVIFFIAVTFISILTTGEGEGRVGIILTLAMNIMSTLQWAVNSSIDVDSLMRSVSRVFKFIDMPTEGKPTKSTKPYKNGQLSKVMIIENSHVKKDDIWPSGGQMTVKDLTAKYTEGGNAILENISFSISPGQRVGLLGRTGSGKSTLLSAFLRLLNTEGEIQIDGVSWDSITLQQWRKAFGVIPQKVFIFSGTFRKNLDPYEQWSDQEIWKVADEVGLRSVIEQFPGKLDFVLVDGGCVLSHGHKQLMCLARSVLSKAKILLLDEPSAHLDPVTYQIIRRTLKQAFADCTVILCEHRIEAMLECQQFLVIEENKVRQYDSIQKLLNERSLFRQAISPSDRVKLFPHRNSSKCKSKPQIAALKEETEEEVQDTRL

SMILES	EC30
Cc1cc(C)c(Oc2nc(C3=CCSCC3)ccc2C(=O)NS(=O)(=O)c2cccc(N)n2)c(C)c1 [Compound 1517, N-[(6-amino-2-pyridyl)sulfonyl]-6-(3,6-dihydro-2H-thiopyran-4-yl)-2-(2,4,6-trimethylphenoxy)pyridine-3-carboxamide]	+++ (“+++” means <3 uM)
Cc1cc(C)c(Oc2nc(C3=CC4CCC3C4)ccc2C(=O)NS(=O)(=O)c2cccc(N)n2)c(C)c1 (stereo not drawn) [Compound 1518, N-[(6-amino-2-pyridyl)sulfonyl]-6-(3-bicyclo[2.2.1]hept-2-enyl)-2-(2,4,6-trimethylphenoxy)pyridine-3-carboxamide]	+++ (“+++” means <3 uM)
Cc1cc(C)c(Oc2nc(C3CCC(C(F)(F)F)CC3)ccc2C(=O)NS(=O)(=O)c2cccc(N)n2)c(C)c1 (stereo not drawn) [Compound 1519, N-[(6-amino-2-pyridyl)sulfonyl]-6-[4-(trifluoromethyl)cyclohexyl]-2-(2,4,6-trimethylphenoxy)pyridine-3-carboxamide]	+++ (“+++” means <3 uM)
CC(C)COc1cc(F)cc(-c2ccc(C(=O)NS(=O)(=O)N3CCCC(C)(NC(=O)OC(C)(C)C)C3)c(N3CC(C)CC3(C)C)n2)c1 (stereo not drawn) [Compound 1520, tert-butyl N—[1-[[6-(3-fluoro-5-isobutoxy-phenyl)-2-(2,2,4-trimethylpyrrolidin-1-yl)pyridine-3-carbonyl]sulfamoyl]-3-methyl-3-piperidyl]carbamate]	+++ (“+++” means <3 uM)
CC(C)COc1cc(F)cc(-c2ccc(C(=O)NS(=O)(=O)N3CC4CC4(N)C3)c(N3C[C@@H](C)CC3(C)C)n2)c1 (stereo partly drawn) [Compound 1521, N-[(5-amino-3-azabicyclo[3.1.0]hexan-3-yl)sulfonyl]-6-(3-fluoro-5-isobutoxy-phenyl)-2-[(4S)-2,2,4-trimethylpyrrolidin-1-yl]pyridine-3-carboxamide]	+++ (“+++” means <3 uM)
CC1CN(c2nc(C(C)(C)C)c(C3=CCN(C(=O)OC(C)(C)C)CC3)cc2C(=O)NS(=O)(=O)c2cccc(N)n2)C(C)(C)C1 (stereo not drawn) [Compound 1522, tert-butyl 4-[5-[(6-amino-2-pyridyl)sulfonylcarbamoyl]-2-tert-butyl-6-(2,2,4-trimethylpyrrolidin-1-yl)-3-pyridyl]-3,6-dihydro-2H-pyridine-1-carboxylate]	+++ (“+++” means <3 uM)
CC(C)COc1cncc(-c2ccc(C(=O)NS(=O)(=O)c3cccc(N)n3)c(N3C[C@@H](C)CC3(C)C)n2)n1 [Compound 1523, N-[(6-amino-2-pyridyl)sulfonyl]-6-(6-isobutoxypyrazin-2-yl)-2-[(4S)-2,2,4-trimethylpyrrolidin-1-yl]pyridine-3-carboxamide]	+++ (“+++” means <3 uM)
C[C@@H]1CN(c2nc(C3=COCCC3)ccc2C(=O)NS(=O)(=O)c2cccc(N)n2)C(C)(C)C1 [Compound 1524, N-[(6-amino-2-pyridyl)sulfonyl]-6-(3,4-dihydro-2H-pyran-5-yl)-2-[(4S)-2,2,4-trimethylpyrrolidin-1-yl]pyridine-3-carboxamide]	+++ (“+++” means <3 uM)
CC(C)COc1cc(F)cc(-c2ccc(C(=O)NS(=O)(=O)C3CC3)c(N3C[C@@H](C)CC3(C)C)n2)c1 [Compound 1525, N-cyclopropylsulfonyl-6-(3-fluoro-5-isobutoxy-phenyl)-2-[(4S)-2,2,4-trimethylpyrrolidin-1-yl]pyridine-3-carboxamide]	+++ (“+++” means <3 uM)
CC(C)COc1cc(F)cc(-c2cnc(C(=O)NS(=O)(=O)c3cccc(N)n3)c(N3C[C@@H](C)CC3(C)C)n2)c1 [Compound 1526, NV [(6-amino-2-pyridyl)sulfonyl]-5-(3-fluoro-5-isobutoxy-phenyl)-3-[(4S)-2,2,4-trimethylpyrrolidin-1-yl]pyrazine-2-carboxamide]	+++ (“+++” means <3 uM)
CC(C)COc1cc(F)cc(-c2ccc(C(=O)NS(=O)(=O)c3cccc(N)n3)c(N3CC4CC(C4)C3)n2)c1 [Compound 1529, N-[(6-amino-2-pyridyl)sulfonyl]-2-(3-azabicyclo[3.1.1]heptan-3-yl)-6-(3-fluoro-5-isobutoxy-phenyl)pyridine-3-carboxamide]	+++ (“+++” means <3 uM)
CC(C)COc1cc(F)cc(-c2ccc(C(=O)NS(=O)(=O)c3cccc(N)n3)c(OC3CCC3C3CC3)n2)c1 (stereo not drawn) [Compound 1530, N-[(6-amino-2-pyridyl)sulfonyl]-2-(2-cyclopropylcyclobutoxy)-6-(3-fluoro-5-isobutoxy-phenyl)pyridine-3-carboxamide]	+++ (“+++” means <3 uM)
CC(C)COc1cc(F)cc(-c2ccc(C(=O)NS(=O)(=O)c3cccc(N)n3)c(C3=CC(C)(C)OC3(C)C)n2)c1 [Compound 1531, N-[(6-amino-2-pyridyl)sulfonyl]-6-(3-fluoro-5-isobutoxy-phenyl)-2-(2,2,5,5-tetramethyl-3-furyl)pyridine-3-carboxamide]	++ (“++” means between 3 uM and 10 uM)
Cc1cn(-c2ccc(C(=O)NS(=O)(=O)c3cccc(N)n3)c(N3C[C@@H](C)CC3(C)C)n2)nc1OCC(C)C [Compound 1532, N-[(6-amino-2-pyridyl)sulfonyl]-6-(3-isobutoxy-4-methyl-pyrazol-1-yl)-2-[(4S)-2,2,4-trimethylpyrrolidin-1-yl]pyridine-3-carboxamide]	+++ (“+++” means <3 uM)
CC(=O)N(C)C1CCN(S(=O)(=O)NC(=O)c2ccc(-c3cc(F)cc(OCC(C)C)c3)nc2N2CC(C)CC2(C)C)C1 (stereo not drawn) [Compound 1533, N—[3-[acetyl(methyl)amino]pyrrolidin-1-yl]sulfonyl-6-(3-fluoro-5-isobutoxy-phenyl)-2-(2,2,4-trimethylpyrrolidin-1-yl)pyridine-3-carboxamide]	+++ (“+++” means <3 uM)
Cc1nc(OCC(C)C)ccc1-c1ccc(C(=O)NS(=O)(=O)c2cccc(N)n2)c(N2[C@H](C)CC[C@@H]2C)n1 [Compound 1537, N-[(6-amino-2-pyridyl)sulfonyl]-2-[(2R,5S)-2,5-dimethylpyrrolidin-1-yl]-6-(6-isobutoxy-2-methyl-3-pyridyl)pyridine-3-carboxamide]	+++ (“+++” means <3 uM)

Next, values leading:

EC30	SMILES
+++ (“+++” means <3 uM)	CC(C)C[C@@H](C)Nc1ccc(-c2ccc(C(=O)NS(=O)(=O)c3cccc(N)n3)c(N3[C@H](C)CC[C@@H]3C)n2)cn1 [Compound 1527, N-[(6-amino-2-pyridyl)sulfonyl]-6-[6-[[(1R)-1,3-dimethylbutyl]amino]-3-pyridyl]-2-[(2S,5R)-2,5-dimethylpyrrolidin-1-yl]pyridine-3-carboxamide]
++ (“++” means between 3 uM and 10 uM)	Cc1cc(C)c(Oc2nc(C3=CC(=O)CC(C)(C)C3)ccc2C(=O)NS(=O)(=O)c2cccc(N)n2)c(C)c1 [Compound 1528, N-[(6-amino-2-pyridyl)sulfonyl]-6-(5,5-dimethyl-3-oxo-cyclohexen-1-yl)-2-(2,4,6-trimethylphenoxy)pyridine-3-carboxamide]
++ (“++” means between 3 uM and 10 uM)	C[C@@H]1CN(c2nc(C3CCOC3)ccc2C(=O)NS(=O)(=O)c2cccc(N)n2)C(C)(C)C1 (stereo partly drawn) [Compound 1534, N-[(6-amino-2-pyridyl)sulfonyl]-6-tetrahydrofuran-3-yl-2-[(4S)-2,2,4-trimethylpyrrolidin-1-yl]pyridine-3-carboxamide]
+++ (“+++” means <3 uM)	COc1ccc(/C=C/c2cc(C(=O)NS(=O)(=O)c3cccc(N)n3)c(N3C[C@@H](C)CC3(C)C)nc2C(C)(C)C)cc1 [Compound 1535, N-[(6-amino-2-pyridyl)sulfonyl]-6-tert-butyl-5-[(E)-2-(4-methoxyphenyl)vinyl]-2-[(4S)-2,2,4-trimethylpyrrolidin-1-yl]pyridine-3-carboxamide]
++ (“++” means between 3 uM and 10 uM)	COc1ccc(C(=O)NS(=O)(=O)c2cccc(N)n2)c(N2C[C@@H](C)CC2(C)C)n1 [Compound 1536, N-[(6-amino-2-pyridyl)sulfonyl]-6-methoxy-2-[(4S)-2,2,4-trimethylpyrrolidin-1-yl]pyridine-3-carboxamide]
+ (“+” means greater than 10 uM)	C[C@@H]1CN(c2nc(-c3cc(O)cc(F)c3)ccc2C(=O)NS(=O)(=O)c2ccccc2)C(C)(C)C1 [Compound 1538, N-(benzenesulfonyl)-6-(3-fluoro-5-hydroxy-phenyl)-2-[(4S)-2,2,4-trimethylpyrrolidin-1-yl]pyridine-3-carboxamide]
+++ (“+++” means <3 uM)	CCOc1cccc2c1CN(Cc1c(C)cc(C)cc1C)C2(C)C(=O)NS(=O)(=O)c1ccccc1 (stereo not drawn) [Compound 1539, N-(benzenesulfonyl)-4-ethoxy-1-methyl-2-[(2,4,6-trimethylphenyl)methyl]isoindoline-1-carboxamide]
+ (“+” means greater than 10 uM)	Cc1cc(C)c(Oc2nc(C3=CCN(C(=O)C(C)C)CC3)ccc2C(=O)NS(=O)(=O)c2cccc(N)n2)c(C)c1 [Compound 1540, N-[(6-amino-2-pyridyl)sulfonyl]-6-[1-(2-methylpropanoyl)-3,6-dihydro-2H-pyridin-4-yl]-2-(2,4,6-trimethylphenoxy)pyridine-3-carboxamide]
+++ (“+++” means <3 uM)	CCOc1cccc2c1CN(Cc1c(C)cc(C)cc1C)[C@]2(C)C(=O)NS(=O)(=O)c1ccc[nH]c1=O [Compound 1541, (1S)-4-ethoxy-1-methyl-N-[(2-oxo-1H-pyridin-3-yl)sulfonyl]-2-[(2,4,6-trimethylphenyl)methyl]isoindoline-1-carboxamide]
+++ (“+++” means <3 uM)	CCOc1cccc2c1CN(Cc1c(C)cc(C)cc1C)C2(C)C(=O)NS(=O)(=O)c1cscn1 (stereo not drawn) [Compound 1542, 4-ethoxy-1-methyl-N-thiazol-4-ylsulfonyl-2-[(2,4,6-trimethylphenyl)methyl]isoindoline-1-carboxamide]
+++ (“+++” means <3 uM)	CC1CN(c2ncc(C3=CC4CCC3(C)C4(C)C)cc2C(=O)NS(=O)(=O)c2cccc(N)n2)C(C)(C)C1 (stereo not drawn) [Compound 1544, N-[(6-amino-2-pyridyl)sulfonyl]-5-(4,7,7-trimethyl-3-bicyclo[2.2.1]hept-2-enyl)-2-(2,2,4-trimethylpyrrolidin-1-yl)pyridine-3-carboxamide]

— patent US10758534B2 (Vertex Pharmaceuticals Incorporated, priority 2014, dated 2020)
